Test results taken from patent US8501946B2 (Glaxo Group Limited, priority 2009, dated 2013).

These molecules were tested against T1, human recombinant P2X7 receptors (Homo sapiens, UniProt Q99572) (assay: Ethidium Accumulation Assay 1 (HEK293 cells, ATP-induced ethidium uptake)). Settings: HEK293 cells expressing human P2X7; 1 mM ATP; sometimes mean of more than one measurement; read-out: Assay 1 (antagonist pIC50 for blocking ATP responses) (converted).
T1 construct: expressed in transfected cells
T1 sequence (Q99572 1-595): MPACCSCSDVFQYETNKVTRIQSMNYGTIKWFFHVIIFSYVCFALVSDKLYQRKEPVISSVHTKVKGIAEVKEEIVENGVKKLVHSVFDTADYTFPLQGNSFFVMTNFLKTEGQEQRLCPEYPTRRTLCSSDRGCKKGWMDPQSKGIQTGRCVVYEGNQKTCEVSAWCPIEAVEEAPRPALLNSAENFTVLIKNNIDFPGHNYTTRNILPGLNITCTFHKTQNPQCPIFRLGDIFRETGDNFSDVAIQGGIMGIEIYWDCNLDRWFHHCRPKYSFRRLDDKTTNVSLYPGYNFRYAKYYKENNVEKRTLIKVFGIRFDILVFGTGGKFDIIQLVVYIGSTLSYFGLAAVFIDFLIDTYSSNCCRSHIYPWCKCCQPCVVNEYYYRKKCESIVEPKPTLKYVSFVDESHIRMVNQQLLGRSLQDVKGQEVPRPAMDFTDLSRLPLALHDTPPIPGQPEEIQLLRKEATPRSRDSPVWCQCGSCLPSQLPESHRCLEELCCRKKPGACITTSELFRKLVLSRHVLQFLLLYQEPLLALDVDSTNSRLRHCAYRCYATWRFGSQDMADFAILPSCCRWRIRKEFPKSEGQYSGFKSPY
Format: cell-based
Description: Eithidium Accumulation Assay 1
Studies were performed using NaCl assay buffer of the following composition: 140 mM NaCl, 10 mM HEPES [4-(2-hydroxyethyl)-1-piperazine-1-ethanesulfonic acid], 5 mM N-methyl-D-glucamine, 5.6 mM KCl, 10 mM D-glucose, 0.5 mM CaCl2 (pH 7.4).
Human Embryonic Kidney (HEK) 293 cells, stably expressing human recombinant P2X7 receptors, were grown in poly-D-lysine pretreated 96 well plates for 18-24 hours.
The cells were washed twice with 350 μl of the assay buffer, before addition of 50 μl of the assay buffer containing the putative P2X7 receptor antagonist compound. (A small amount of dimethyl sulfoxide, for initially dissolving the compound, is optionally used and present in this 50 μl test compound sample.) The cells were then incubated at room temperature (19-21° C.) for 30 min before addition of ATP and ethidium (100 μM final assay concentration). The ATP concentration was chosen to be close to the EC80 for the receptor type and was 1 mM for studies on the human P2X7 receptor. Incubations were continued for 8 or 16 min and were terminated by addition of 25 μl of 1.3M sucrose containing 4 mM of the P2X7 receptor antagonist Reactive Black 5 (Aldrich). […] Antagonist pIC50 values for blocking ATP responses were determined using iterative curve fitting techniques.
In the case of `O=C(c1ccc(F)cc1C(F)(F)F)N1CCn2c(nnc2-c2ccccn2)C1` [Example 94, 7-{[4-fluoro-2-(trifluoromethyl)phenyl]carbonyl}-3-(2-pyridinyl)-5,6,7,8-tetrahydro[1,2,4]triazolo [4,3-a]pyrazine], the IC50 is reported as less than 100 nM.
`O=C(c1ccc(Cl)cc1F)N1CCn2c(nnc2-c2ccccn2)C1` [Example 96, 7-[(4-chloro-2-fluorophenyl)carbonyl]-3-(2-pyridinyl)-5,6,7,8-tetrahydro[1,2,4]triazolo [4,3-a]pyrazine] was tested, and the IC50 was less than 100 nM.
`Cc1cccc(-c2nnc3n2CCN(C(=O)c2cccc(Cl)c2Cl)C3)n1` [Example 69, 7-[(2,3-dichlorophenyl)carbonyl]-3-(6-methyl-2-pyridinyl)-5,6,7,8-tetrahydro[1,2,4]triazolo [4,3-a]pyrazine] was tested, and the IC50 was less than 10 nM.
Molecule `O=C(c1ccc(F)cc1F)N1CCn2c(nnc2-c2ccccn2)C1` [Example 78, 7-[(2,4-difluorophenyl)carbonyl]-3-(2-pyridinyl)-5,6,7,8-tetrahydro[1,2,4]triazolo [4,3-a]pyrazine] has an IC50 of less than 100 nM.
`O=C(c1ccc(F)cc1Cl)N1CCn2c(Br)nnc2C1` [Example 109, 3-Bromo-7-[(2-chloro-4-fluorophenyl)carbonyl]-5,6,7,8-tetrahydro[1,2,4]triazolo[4,3-a]pyrazine] gave an IC50 of less than 501 nM.
Molecule `Cn1nccc1-c1nnc2n1CCN(C(=O)c1cccc(C(F)(F)F)c1Cl)C2` [Example 68, 7-{[2-chloro-3-(trifluoromethyl)phenyl]carbonyl}-3-(1-methyl-1H-pyrazol-5-yl)-5,6,7,8-tetrahydro[1,2,4]triazolo [4,3-a]pyrazine] has an IC50 of less than 100 nM.
Molecule `O=C(c1ccc(Cl)cc1Cl)N1CCn2c(nnc2-c2ccccn2)C1` [Example 76, 7-[(2,4-dichlorophenyl)carbonyl]-3-(2-pyridinyl)-5,6,7,8-tetrahydro[1,2,4]triazolo [4,3-a]pyrazine] has an IC50 of less than 10 nM.
Work on `O=C(c1ccc(F)cc1Cl)N1CCn2c(nnc2-c2ncccc2F)C1` [Example 31, 7-[(2-chloro-4-fluorophenyl)carbonyl]-3-(3-fluoro-2-pyridinyl)-5,6,7,8-tetrahydro[1,2,4]triazolo [4,3-a]pyrazine] yielded an IC50 of less than 10 nM.
With `O=C(c1cccc(C(F)(F)F)c1Cl)N1CCn2c(nnc2-c2ccccc2O)C1` [Example 138, 2-(7-{[2-chloro-3-(trifluoromethyl)phenyl]carbonyl}-5,6,7,8-tetrahydro[1,2,4]triazolo[4,3-a]pyrazin-3-yl)phenol] the IC50 was less than 10 nM.
With `O=C(c1cccc(C(F)(F)F)c1Cl)N1CCn2c(nnc2N2CCC2)C1` [Example 22, 3-(1-azetidinyl)-7-{[2-chloro-3-(trifluoromethyl)phenyl]carbonyl}-5,6,7,8-tetrahydro[1,2,4]triazolo [4,3-a]pyrazine] the IC50 was less than 100 nM.
With `O=C(c1cccc(Cl)c1Cl)N1CCn2c(nnc2-c2ccncn2)C1` [Example 62, 7-[(2,3-dichlorophenyl)carbonyl]-3-(4-pyrimdiinyl)-5,6,7,8-tetrahydro[1,2,4]triazolo [4,3-a]pyrazine] the IC50 was less than 10 nM.
Work on `O=C(c1ccc(Cl)c(F)c1Cl)N1CCn2c(nnc2-c2ccc(F)cn2)C1` [Example 110, 7-[(2,4-Dichloro-3-fluorophenyl)carbonyl]-3-(5-fluoro-2-pyridinyl)-5,6,7,8-tetrahydro[1,2,4]triazolo[4,3-a]pyrazine] yielded an IC50 of less than 10 nM.
Work on `O=C(c1ccc(Cl)cc1Cl)N1CCn2c(Br)nnc2C1` [Example 7, 3-bromo-7-[(2,4-dichlorophenyl)carbonyl]-5,6,7,8-tetrahydro[1,2,4]triazolo [4,3-a]pyrazine] yielded an IC50 of less than 501 nM.
For `Cc1ccnc(-c2nnc3n2CCN(C(=O)c2cccc(C(F)(F)F)c2Cl)C3)c1` [Example 56, 7-{[2-chloro-3-(trifluoromethyl)phenyl]carbonyl}-3-(4-methyl-2-pyridinyl)-5,6,7,8-tetrahydro[1,2,4]triazolo [4,3-a]pyrazine], the IC50 was less than 10 nM.
In the case of `COc1nnc2n1CCN(C(=O)c1cccc(C(F)(F)F)c1Cl)C2` [Example 17, 7-{[2-Chloro-3-(trifluoromethyl)phenyl]carbonyl}-3-(methyloxy)-5,6,7,8-tetrahydro[1,2,4]triazolo[4,3-a]pyrazine], the IC50 is reported as less than 100 nM.
In the case of `O=C(c1ccc(F)cc1Cl)N1CCn2c(nnc2-c2cscn2)C1` [Example 90, 7-[(2-chloro-4-fluorophenyl)carbonyl]-3-(1,3-thiazol-4-yl)-5,6,7,8-tetrahydro[1,2,4]triazolo [4,3-a]pyrazine], the IC50 is reported as less than 10 nM.
Molecule `O=C(c1ccccc1Cl)N1CCn2c(nnc2-c2ccc(F)cc2)C1` [Example 119, 7-[(2-chlorophenyl)carbonyl]-3-(4-fluorophenyl)-5,6,7,8-tetrahydro[1,2,4]triazolo[4,3-a]pyrazine] has an IC50 of less than 100 nM.
`O=C(c1ccc(Cl)cc1Cl)N1CCn2c(nnc2-c2ccc(F)cc2)C1` [Example 100, 7-[(2,4-dichlorophenyl)carbonyl]-3-(4-fluorophenyl)-5,6,7,8-tetrahydro[1,2,4]triazolo [4,3-a]pyrazine] showed an IC50 of less than 100 nM.
In the case of `CCCc1nnc2n1CCN(C(=O)c1cccc(C(F)(F)F)c1Cl)C2` [Example 134, 7-{[2-chloro-3-(trifluoromethyl)phenyl]carbonyl}-3-propyl-5,6,7,8-tetrahydro[1,2,4]triazolo[4,3-a]pyrazine], the IC50 is reported as less than 100 nM.
`O=C(c1cccc(F)c1F)N1CCn2c(nnc2-c2ccccn2)C1` [Example 88, 7-[(2,3-difluorophenyl)carbonyl]-3-(2-pyridinyl)-5,6,7,8-tetrahydro[1,2,4]triazolo [4,3-a]pyrazine] gave an IC50 of less than 100 nM.
Molecule `N#Cc1ccccc1C(=O)N1CCn2c(nnc2-c2ccccn2)C1` [Example 87, 2-{[3-(2-pyridinyl)-5,6-dihydro[1,2,4]triazolo[4,3-a]pyrazin-7(8H)-yl]carbonyl}benzonitrile] has an IC50 of less than 100 nM.
`COCCc1nnc2n1CCN(C(=O)c1cccc(C(F)(F)F)c1Cl)C2` [Example 137, 7-{[2-chloro-3-(trifluoromethyl)phenyl]carbonyl}-3-[2-(methyloxy)ethyl]-5,6,7,8-tetrahydro[1,2,4]triazolo[4,3-a]pyrazine] showed an IC50 of less than 100 nM.
`O=C(c1cccc(Cl)c1Cl)N1CCn2c(nnc2-c2cscn2)C1` [Example 67, 7-[(2,3-dichlorophenyl)carbonyl]-3-(1,3-thiazol-4-yl)-5,6,7,8-tetrahydro[1,2,4]triazolo[4,3-a]pyrazine] was tested, and the IC50 was less than 10 nM.
For `O=C(c1cccc(C(F)(F)F)c1Cl)N1CCn2c(nnc2-c2ccc[nH]2)C1` [Example 38, 7-{[2-chloro-3-(trifluoromethyl)phenyl]carbonyl}-3-(1H-pyrrol-2-yl)-5,6,7,8-tetrahydro[1,2,4]triazolo [4,3-a]pyrazine], the IC50 was less than 10 nM.
In the case of `O=C(c1ccccc1Cl)N1CCn2c(nnc2-c2ccc(F)cn2)C1` [Example 118, 7-[(2-chlorophenyl)carbonyl]-3-(5-fluoro-2-pyridinyl)-5,6,7,8-tetrahydro[1,2,4]triazolo[4,3-a]pyrazine], the IC50 is reported as less than 100 nM.
Molecule `O=C(c1ccc(F)cc1Cl)N1CCn2c(nnc2-c2cccc3cc[nH]c23)C1` [Example 132, 7-[(2-chloro-4-fluorophenyl)carbonyl]-3-(1H-indol-7-yl)-5,6,7,8-tetrahydro[1,2,4]triazolo[4,3-a]pyrazine] has an IC50 of less than 100 nM.
`Cn1ccc(-c2nnc3n2CCN(C(=O)c2ccc(F)cc2Cl)C3)n1` [Example 72, 7-[(2-chloro-4-fluorophenyl)carbonyl]-3-(1-methyl-1H-pyrazol-3-yl)-5,6,7,8-tetrahydro[1,2,4]triazolo [4,3-a]pyrazine] was tested, and the IC50 was less than 100 nM.
